Experiments:
Assay type in all cases: cell-based
[1] = target: Human TLR8 (Homo sapiens (Human), UniProt Q9NR97); assay: HEK-Blue hTLR8 SEAP reporter gene assay (agonistic activity); details: HEK-Blue hTLR8 cells, 24 h incubation, SEAP by QUANTI-Blue OD650
Text: (§1) The HEK-Blue™ hTLR7 (catalog No.: hkb-ht1r7) and HEK-Blue™ hTLR8 (catalog No.: hkb-ht1r8) cell lines used in this experiment were purchased from InvivoGen. The two cell lines were constructed by a human embryonic kidney 293 cell line stably co-transfecting hTLR7 or hTLR8 and inducing expression of Secreted Alkaline Phosphatase (SEAP) reporter gene, wherein SEAP reporter gene was regulated by an IFN-β promoter. The promoter was fused with NF-κB and AP-1 binding sites. hTLR7 or hTLR8 agonist can activate NF-κB and AP-1 and induce the expression and secretion of SEAP. The agonistic activity of compound for hTLR7 and hTLR8 receptors was identified by measuring the expression level of SEAP using QUANTI-Blue™ reagent.
(§2) • 1. Compound was diluted in 3-fold gradients (10 concentration points in total) and added to the cell plate in duplicate. 1 μL of DMSO was added to each negative control well. • 2. The cells cultured in a T150 flask were taken out from a CO2 incubator, and the cell culture supernatant was discarded. The resulting cells were washed once with Dulbecco's phosphate buffered saline (DPBS). The flask was added with about 10 mL of the culture medium, and tapped to detach the cells. The resulting cell mass was gently pipetted evenly. The cells were counted and the cell suspension was adjusted to 500,000 cells/mL with the culture medium. Then 100 μL of diluted cells were added to each well (50,000 cells/well) of a 96-well plate containing the compound. • 3. The compound and cells were incubated in an incubator at 37° C., 5% CO2 for 24 h. • 4. Activity assay on the compound: 20 μL of the induced cell supernatant from each well was added to a cell culture plate containing 180 μL of QUANTI-Blue™ reagent, and after incubation at 37° C. for 1 h, the optical density absorbance at 650 nm (OD650) was assayed for each well using a multi-functional microplate reader. • 5. Activity assay on the cells: luciferase signal (RLU) was detected using a multi-functional microplate reader as per the process described in the instructions of ATPlite 1Step. • 6. Data analysis: compound activity: OD650 values were analyzed using GraphPad Prism software and the dose-response curves of the compounds were fitted to calculate EC50 values (half maximal effect concentration) for the compounds.

[2] = target: Human TLR7 (Homo sapiens (Human), UniProt Q9NYK1); assay: HEK-Blue hTLR7 SEAP reporter gene assay (agonistic activity); details: HEK-Blue hTLR7 cells, 24 h incubation, SEAP by QUANTI-Blue OD650
Text: as §1, §2

[3] = tested on: human peripheral blood mononuclear cells (hPBMCs); assay: Cytokine induction (IL-12p40, IFN-γ, TNF-α) in peripheral blood mononuclear cells, flow cytometric bead array; details: PBMC, hPBMC, 24 h incubation, supernatant, CBA
Text: (§3) TLR8 is a receptor for the innate immune system to sense exogenous pathogens, and can recognize exogenous viral single-stranded RNA and cause the release of a series of cytokines such as TNF-α, IL-12, IFN-γ to elicit an antiviral immune response; TLR7 is another receptor for the innate immune system to sense exogenous pathogens and, when activated, produces primarily such antiviral cytokines as IFN-α. In this experiment, a potential compound of TLR8 agonist was used to stimulate human peripheral blood mononuclear cells (hPBMCs), and the levels of TNF-α, IL-12p40, IFN-γ and IFN-α above were measured to reflect the activation of the compound on TLR8 receptor and its selectivity for TLR8/TLR7.
• 1. Fresh blood of healthy volunteers was collected and anticoagulated with an EDTA-K2 anticoagulation tube (catalog No.: BD-8516542); • 2. hPBMC cells in the middle cloud-like layer were separated after Ficoll density gradient centrifugation, and washed twice with RPMI1640 (source: Gibco, catalog No.: 224400-089) containing 10% serum, and the culture medium was resuspended to 10 mL. After the cells were counted with Vi-cell cell counter, the concentration of cell suspension was adjusted to 2×10^6/mL; • 3. The compound was dissolved in DMSO to 100 mM, and diluted to 50 mM and 2 mM with DMSO, which were served as initial concentrations. Then the solutions were each diluted sequentially in a 3-fold gradient (sample at a previous concentration (5 μL)+DMSO (10 μL)) to obtain 8 gradients. The resulting solutions were respectively subjected to 500-fold dilution with the culture medium to prepare the working solutions of the compound; • 4. […] IL-12p40, TNF-α and IFN-γ in the supernatant were detected by flow cytometric bead array (CBA); IFN-α in the cell supernatant was detected by enzyme-linked immuno sorbent assay (ELISA). • 6. Data analysis: compound activity: EC50 values (half maximal effect concentration) were analyzed using a GraphPad Prism software and the dose-response curves of the compound were fitted to calculate EC50 values for the compound.

[4] = tested on: human peripheral blood mononuclear cells (hPBMCs); assay: IFN-α induction in peripheral blood mononuclear cells, ELISA; details: PBMC, hPBMC, 24 h incubation, supernatant, up to 50 μM
Text: as §3
• 1. […] After the cells were counted with Vi-cell cell counter, the concentration of cell suspension was adjusted to 2×10^6/mL; • 3. […] IL-12p40, TNF-α and IFN-γ in the supernatant were detected by flow cytometric bead array (CBA); IFN-α in the cell supernatant was detected by enzyme-linked immuno sorbent assay (ELISA). • 6. Data analysis: compound activity: EC50 values (half maximal effect concentration) were analyzed using a GraphPad Prism software and the dose-response curves of the compound were fitted to calculate EC50 values for the compound.

Sequence of Human TLR7 (Q9NYK1 27-1049): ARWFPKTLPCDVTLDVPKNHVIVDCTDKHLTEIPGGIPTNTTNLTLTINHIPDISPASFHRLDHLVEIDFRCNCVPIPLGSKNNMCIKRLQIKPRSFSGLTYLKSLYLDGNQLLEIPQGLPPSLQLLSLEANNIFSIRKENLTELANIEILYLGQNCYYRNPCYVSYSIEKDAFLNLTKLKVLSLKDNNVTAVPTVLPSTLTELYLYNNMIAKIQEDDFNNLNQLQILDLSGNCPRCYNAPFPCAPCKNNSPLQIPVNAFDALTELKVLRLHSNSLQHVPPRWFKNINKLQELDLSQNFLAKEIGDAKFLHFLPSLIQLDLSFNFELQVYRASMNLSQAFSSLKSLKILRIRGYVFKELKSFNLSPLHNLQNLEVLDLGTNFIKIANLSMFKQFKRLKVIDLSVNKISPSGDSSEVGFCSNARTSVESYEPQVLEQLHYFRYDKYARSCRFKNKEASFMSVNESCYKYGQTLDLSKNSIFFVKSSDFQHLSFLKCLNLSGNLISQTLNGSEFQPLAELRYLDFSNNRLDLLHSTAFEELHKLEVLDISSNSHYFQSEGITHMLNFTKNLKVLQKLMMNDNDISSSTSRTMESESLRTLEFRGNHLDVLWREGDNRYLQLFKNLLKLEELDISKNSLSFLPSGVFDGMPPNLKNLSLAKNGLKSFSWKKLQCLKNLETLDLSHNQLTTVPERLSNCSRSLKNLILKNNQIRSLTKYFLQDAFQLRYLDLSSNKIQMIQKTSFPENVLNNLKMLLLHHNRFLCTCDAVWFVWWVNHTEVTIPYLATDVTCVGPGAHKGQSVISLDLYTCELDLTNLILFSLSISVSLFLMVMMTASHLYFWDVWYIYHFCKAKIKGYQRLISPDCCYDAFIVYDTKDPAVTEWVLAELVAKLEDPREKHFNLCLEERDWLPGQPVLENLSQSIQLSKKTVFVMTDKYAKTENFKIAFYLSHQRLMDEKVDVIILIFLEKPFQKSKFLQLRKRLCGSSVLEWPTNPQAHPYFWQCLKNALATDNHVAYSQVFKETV
Sequence of Human TLR8 (Q9NR97 27-1041): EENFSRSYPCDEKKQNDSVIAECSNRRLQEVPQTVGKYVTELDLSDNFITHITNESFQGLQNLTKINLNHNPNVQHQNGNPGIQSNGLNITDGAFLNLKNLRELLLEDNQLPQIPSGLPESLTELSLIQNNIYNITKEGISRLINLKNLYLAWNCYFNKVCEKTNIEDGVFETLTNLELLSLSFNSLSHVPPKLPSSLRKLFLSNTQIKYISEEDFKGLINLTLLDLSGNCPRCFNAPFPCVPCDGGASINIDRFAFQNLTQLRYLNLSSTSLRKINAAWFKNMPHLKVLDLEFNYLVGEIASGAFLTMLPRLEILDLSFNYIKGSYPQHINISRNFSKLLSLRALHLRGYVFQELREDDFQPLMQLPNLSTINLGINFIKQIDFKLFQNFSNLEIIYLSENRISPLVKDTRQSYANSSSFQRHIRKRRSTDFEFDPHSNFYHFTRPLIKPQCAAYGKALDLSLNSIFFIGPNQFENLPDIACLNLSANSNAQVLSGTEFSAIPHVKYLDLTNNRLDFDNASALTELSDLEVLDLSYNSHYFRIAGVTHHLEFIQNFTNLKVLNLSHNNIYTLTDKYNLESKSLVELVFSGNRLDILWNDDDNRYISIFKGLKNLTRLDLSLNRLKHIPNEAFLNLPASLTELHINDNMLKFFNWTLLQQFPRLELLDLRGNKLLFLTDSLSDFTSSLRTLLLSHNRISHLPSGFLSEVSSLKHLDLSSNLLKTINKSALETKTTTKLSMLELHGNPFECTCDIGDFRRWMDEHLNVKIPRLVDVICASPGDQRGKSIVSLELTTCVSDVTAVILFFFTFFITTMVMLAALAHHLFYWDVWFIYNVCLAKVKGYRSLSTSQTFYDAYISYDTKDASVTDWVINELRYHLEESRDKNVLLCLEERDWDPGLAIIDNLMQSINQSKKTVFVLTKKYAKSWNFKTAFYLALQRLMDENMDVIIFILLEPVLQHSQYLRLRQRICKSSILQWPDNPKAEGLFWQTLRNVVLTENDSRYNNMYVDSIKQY

Row | SMILES | EC50 [1] [µM] | EC50 [2] [µM] | EC50 ([3]; read-out: IFN-γ EC50) [µM] | EC50 ([3]; read-out: IL-12p40 EC50) [µM] | EC50 ([3]; read-out: TNF-α EC50) [µM] | EC50 [4] [µM]
1 | CCCCC(C)(CNC(=O)[C@@H]1CCCN1)Nc1nc(N)nc2cccnc12 (single isomer, unassigned) [Compound 1] | 0.002 | > 15 | 0.015 | 0.006 | 0.03 | > 50
2 | CCCCC(C)(CNC(=O)[C@@H]1CCCN1)Nc1nc(N)nc2cnccc12 (stereo partly drawn) [Compound 2] | 0.006 | > 15 |  |  |  | 
3 | CCCCC(C)(CNC(=O)[C@@H]1CCCN1)Nc1nc(N)nc2ccccc12 (stereo partly drawn) [Compound 3] | 0.032 | > 15 |  |  |  | 
4 | CCCCC(C)(CNC(=O)[C@@H]1COCCN1)Nc1nc(N)nc2cccnc12 (single isomer, unassigned) [Compound 4] | 0.014 | > 15 |  |  |  | 
5 | CCCCC(C)(CNC(=O)[C@@H]1CC(F)(F)CN1)Nc1nc(N)nc2cccnc12 (single isomer, unassigned) [Compound 5] | 0.106 | > 15 |  |  |  | 
6 | CCCCC(C)(CNC(=O)[C@@H]1CCN1)Nc1nc(N)nc2cccnc12 (single isomer, unassigned) [Compound 7] | 0.015 | > 15 |  |  |  | 
7 | CCCCC(C)(CNC(=O)[C@@H]1CCCCN1)Nc1nc(N)nc2cccnc12 (single isomer, unassigned) [Compound 6] | 0.018 | > 15 |  |  |  | 
